Test [1] is described as follows: UV-Vis host-guest titration, association constant. The note with it: host (9) in dichloromethane; triplicate, TBA salt and acid; Bindfit. It is filed as binding. The protocol:
(§1) Path length of the quartz cell was 1 cm. For UV-vis titrations, a stock solution of host was prepared (2.2×10^−3 M) in dichloromethane (DCM) and serially diluted to the required concentrations. Working solutions of tetrabutylammonium (TBA) anion salts or guest molecules were prepared in the same manner Host−guest titrations used solutions of guest prepared in the working concentration of host solution, according to the procedure of Thordarson, 2011.
(§2) UV-vis spectroscopic host−guest titrations were performed in accordance with the methodologies of Thordarson, 2011. Solutions of host in dichloromethane were prepared. Solutions of guest were then prepared in the host solution. Aliquots of guest in host solution were added to host solution and sequentially analysed until a known molar equivalent of guest was added. The amount of guest added per aliquot was ascertained by a preliminary screening experiment; strong association constants required smaller molar equivalents so more information could be collected. By way of example, host (9) responded to 0.1 molar equivalent of PFBA strongly, so an addition of 1 molar equivalent of PFBA would result in a loss of information. The inverse is true for weaker binding interactions. […]
(§3) A host solution of host (9) in dichloromethane was monitored using UV-Vis analysis as 0.5-10 equivalents of each PFAS was added. […]

Test [2] in a line: UV-Vis host-guest titration, association constant. It is filed as binding. The following applies: host (9) in dichloromethane; triplicate, TBA salt and acid; Bindfit. As for the experimental part: as §1, §2, §3
The source holds these as a separate data set.

Test [3] in a line: UV-Vis host-guest titration, association constant. It is filed as binding. The following applies: host (9) in dichloromethane; triplicate, TBA salt and acid; Bindfit. As for the experimental part:
as §1, §2, §3
This is another data set of the same source.

Test [4] can be described thus: Non-fluorinated and neutral fluorinated guest molecules, UV-Vis. Type of test: binding. The note with it: 10 molar equivalents, dichloromethane; immediately and 24 hours later. The protocol:
The binding interaction was probed by combining the host (9) with non-fluorinated and neutral fluorinated guest molecules. Solutions of host (9) in dichloromethane were combined with 10 molar equivalents of tetrafluorobenzene and nonanoic acid. Solutions were analysed using UV-Vis spectroscopy (immediately and 24 hours later) to check for any indication of binding.

Test [5] can be described thus: Preliminary binding study, colour change. From the text:
Preliminary binding studies were undertaken by combining an amide linked porphyrin host molecule (9) and tetrabutylammonium perfluorooctanoate (TBAPFO) in dichloromethane.

Test [6] in a line: GenX vapour test with host-doped filter paper. The note with it: for colour of host-doped paper in tube headspace: one hour. As for the experimental part:
A solution of medium chain host (9) (2.20×10^−5 M) in dichloromethane was prepared. Whatman 4 filter papers were soaked/dipped in the host solution and left to air dry on a watch glass. An aqueous solution of GenX™ (1 ppm, 3.03×10^−6 M) was prepared in a glass volumetric flask (1 L). The volumetric flask stopper was removed, and the dried host-doped paper was laid on top the opening.
An aqueous solution of GenX™ (1 ppm, 3.03×10^−6 M) was prepared in a glass volumetric flask (1 L). A solution of medium chain host (2.20×10^−5 M) in dichloromethane was prepared. Whatman 4 filter papers were soaked/dipped in the host solution and left to air dry on a watch glass. The filter papers were cut into strips and adhered to the lids of HDPP tubes. Aqueous samples of GenX™ were diluted to 1 ppm, 1 ppb and 1 ppt and poured into the HDPP tubes. The caps were immediately replaced, and the tubes were left for an hour.

Test [7] in a line: GenX, water and HDPP tube experiment (biphasic). As for the experimental part:
A solution of medium chain amide host (2.04×10^−5 M) in dichloromethane was added to an aqueous solution of GenX™ (5 ppm, 1.51×10^−5 M 50 mL) in a volumetric flask. […] Both phases were then transferred via pouring to a HDPP tube. The green colour persisted initially but began to reduce with time.

Test [8] can be described thus: Colorimetric matching of mixed PFCA samples, high concentration. From the text: The present inventors investigated the colorimetric responses for host (12) with “high” concentrations of PFCA (where [host]<[guest]), and “low” concentrations of PFCA (where [host]>[guest]). Generally, RGB response values will increase with increasing concentrations of PFCA until the host has been saturated; beyond the saturation limit, RGB response values are similar. When there was an excess of guest, the response values could only be used as a threshold indication for PFCA concentrations.
RGB response curves were established by combining solutions of host (12) (5.01×10^−6 M) with solutions of PFOA (0-16 ppm, 3.86×10^−5 M) in dichloromethane. […] Thus, when establishing a calibration curve, the relative proportion of free host to host−PFCA complex limiting the variability of colour response must be considered for the application.
For the “high” PFCA concentration experiment, the PFOA generated calibration curve (y=0.0401 ln(x)+0.2366, R^2=0.9677) (FIG. 17) begins to level out at ca. 2 ppm. Above that concentration, the RGB response values are difficult to differentiate.

Consider `O=C(Nc1ccccc1-c1c2nc(c(-c3ccccc3NC(=O)C(F)(F)C(F)(F)C(F)(F)C(F)(F)C(F)(F)C(F)(F)C(F)(F)F)c3ccc([nH]3)c(-c3ccccc3NC(=O)C(F)(F)C(F)(F)C(F)(F)C(F)(F)C(F)(F)C(F)(F)C(F)(F)F)c3nc(c(-c4ccccc4NC(=O)C(F)(F)C(F)(F)C(F)(F)C(F)(F)C(F)(F)C(F)(F)C(F)(F)F)c4ccc1[nH]4)C=C3)C=C2)C(F)(F)C(F)(F)C(F)(F)C(F)(F)C(F)(F)C(F)(F)C(F)(F)F` [host (9), α,α,α,α-5,10,15,20-tetrakis(2-(pentadecafluorooctanoylamino)phenyl)porphyrin], for which the “K value (averaged association constant Ka)” value in test [1] was determined as 12999; in test [2], 58920; in test [3], 23968. The colorimetric response entry in test [4] is reported as “no colorimetric response”. Besides, the “colour change of host solution” value in test [5] (addition of solid TBAPFO to red-brown host solution in dichloromethane) is recorded as “changed colour to green”. The “colour change of host solution, biphasic” value in test [5] (host in dichloromethane (0.0124 mmol, 5 mL) and TBAPFO 3 ppm in water (500 mL)) is “colour change of the host solution could also be observed”. Besides, in test [6] (GenX 1 ppm in water, paper on flask opening), the “colour change of host-doped paper over aqueous GenX” value is on record as “A colour change developed immediately”. In addition, the “colour of host-doped paper in tube headspace” value in test [6] (aqueous GenX 1 ppb) and in test [6] (aqueous GenX 1 ppm) was “A green colour was visible” in each case. Moreover, in test [7] (after 24 hours), the “colour of host solution after transfer to HDPP tube” value is “significant reduction in the intensity of the green colour”. Also, in test [7] (host 2.04×10^−5 M in dichloromethane added to aqueous GenX 5 ppm), the “colour of host solution” value is “immediately became a vibrant green colour”.

On to `O=C(Nc1ccccc1-c1c2nc(c(-c3ccccc3NC(=O)C(F)(F)C(F)(F)C(F)(F)C(F)(F)C(F)(F)C(F)(F)C(F)(F)C(F)(F)C(F)(F)C(F)(F)C(F)(F)F)c3ccc([nH]3)c(-c3ccccc3NC(=O)C(F)(F)C(F)(F)C(F)(F)C(F)(F)C(F)(F)C(F)(F)C(F)(F)C(F)(F)C(F)(F)C(F)(F)C(F)(F)F)c3nc(c(-c4ccccc4NC(=O)C(F)(F)C(F)(F)C(F)(F)C(F)(F)C(F)(F)C(F)(F)C(F)(F)C(F)(F)C(F)(F)C(F)(F)C(F)(F)F)c4ccc1[nH]4)C=C3)C=C2)C(F)(F)C(F)(F)C(F)(F)C(F)(F)C(F)(F)C(F)(F)C(F)(F)C(F)(F)C(F)(F)C(F)(F)C(F)(F)F` [host (12), α,α,α,α-5,10,15,20-tetrakis(2-(tricosafluorododecanoylamino)phenyl) porphyrin], for which the ΔE in test [8] (15 vs 3 ppm PFCA sample) worked out at 10; in test [8] (15 vs 12 ppm PFCA sample) it was 2. In test [8] (sample measured 0.20 ppm), the “[PFCA]predicted from PFOA regression” value is 0.18 ppm.

The values above are taken from US20240166658A1, “PORPHYRIN DERIVATIVES AND USES THEREOF” (University of Tasmania, priority 2021, published 2024).
